Structures can show the parent of a compound that is named as a salt. Where two headings read alike, the source gives them in different places.
Legend:
[1] = Hygroscopicity by dynamic vapor sorption (DVS); assay type: physicochemical; conditions: for Hygroscopicity class: Chinese Pharmacopoeia 2015 guideline 9103, 25° C.; for Weight gain under 80% Relative Humidity: about 10 mg sample
Protocol: Dynamic vapor sorption (DVS) was applied to assess hygroscopicity of Form E and Form M in patent CN103781770B with about 10 mg of samples. The DVS plots of Form E and Form M were substantially as depicted in FIG. 8 and FIG. 9, respectively.
About hygroscopicity characterization description and definition of hygroscopicity (Chinese Pharmacopoeia 2015 edition general notices 9103 Drug hygroscopicity test guidelines, test at 25° C.+/−1° C., 80% Relative Humidity). • deliquescent: Sufficient water is absorbed to form a liquid; • very hygroscopic: Increase in mass is equal to or greater than 15 percent; • hygroscopic: Increase in mass is less than 15 percent and equal to or greater than 2 percent; • slightly hygroscopic: Increase in mass is less than 2 percent and equal to or greater than 0.2 percent. • no or almost no hygroscopic: Increase in mass is less than 0.2%.

[2] = Stability of solid form on storage, checked by XRPD; assay type: physicochemical; conditions: for Final Solid Form: 11 months, XRPD
Protocol: Solid samples of Form E were stored under conditions of 25° C./60% relative humidity (RH) and 40° C./75% RH for 11 months and XRPD were tested. The XRPD patterns before and after storage were substantially as depicted in FIG. 7.
Form E remains stable for at least 11 months under conditions of 25° C./60% RH and 40° C./75% RH. […] The XRPD patterns overlay are substantially as depicted in FIG. 7, in which the top, middle and bottom patterns correspond to the initial sample, sample stored at 25° C./60% RH for 11 months and sample stored at 40° C./75% RH for 11 months, respectively.

[3] = cited from earlier work
[4] = converts to liquid crystalline form B spontaneously when stored for some time; cited from earlier work

Question: For O=C(O)c1ccc2nc(-c3cc(Cl)cc(Cl)c3)oc2c1 [Form E, 6-carboxy-2-(3,5-dichlorophenyl)-benzoxazole meglumine salt], which Hygroscopicity class ([1]; 80% RH) is on record?
Answer: slightly hygroscopic (Increase in mass is less than 2 percent and equal to or greater than 0.2 percent)

Question: And the “Weight gain under 80% Relative Humidity” value ([1]; DVS, 80% RH)?
Answer: 1.82%

Question: What about the “Time the form remains stable” value ([2]; 25° C./60% RH and 40° C./75% RH) of the same compound?
Answer: at least 11 months

Question: What about the “Final Solid Form” value ([2]; 25° C./60% RH) of the same compound?
Answer: Form E

Question: What about the “Final Solid Form” value ([2]; 40° C./75% RH) of the same compound?
Answer: Form E

Question: Which Hygroscopicity class ([1]; 80% RH) does the source give for O=C(O)c1ccc2nc(-c3cc(Cl)cc(Cl)c3)oc2c1 [Form M, 6-carboxy-2-(3,5-dichlorophenyl)-benzoxazole meglumine salt] here?
Answer: hygroscopic (Increase in mass is less than 15 percent and equal to or greater than 2 percent)

Question: And the “Weight gain under 75% RH” value ([1]; DVS, 75% RH)?
Answer: 2.98%

Question: And the “Weight gain under 80% Relative Humidity” value ([1]; DVS, 80% RH)?
Answer: 2.98%-4.65%

Question: What about the “Weight gain under 80% RH, inferred from FIG. 8” value ([1]; DVS, 80% RH, inferred from the 75% RH value) of the same compound?
Answer: > 2.98%

Question: What about the “Hygroscopicity (in words)” value ([1]; background statement, "Studies show") of the same compound?
Answer: high

Question: What does the source list for O=C(O)c1ccc2nc(-c3cc(Cl)cc(Cl)c3)oc2c1 [Liquid crystalline form B, 6-carboxy-2-(3,5-dichlorophenyl)-benzoxazole meglumine salt]?
Answer: Weight gain when stored at 90% relative humidity ([3]; 90% relative humidity): up to 25%; Hygroscopicity (in words) ([3]; prior-art description): highly deliquescent

Question: Which “Stability (in words)” value [4] does the source give for O=C(O)c1ccc2nc(-c3cc(Cl)cc(Cl)c3)oc2c1 [amorphous form A, 6-carboxy-2-(3,5-dichlorophenyl)-benzoxazole meglumine salt] here?
Answer: poor stability

— patent US10577334B2, “Crystalline form E of tafamidis meglumine, process for preparation and use thereof” (Crystal Pharmatech Co., Ltd., priority 2016, dated 2020)
